Measured values published in patent publication US20170190671A1, “BIS(ARYL)CATECHOL DERIVATIVES AS HERBICIDES” (E I DU PONT DE NEMOURS AND COMPANY, priority 2014, published 2017).

Assays:
Format in all cases: in vivo
[1] = tested on: waterhemp (common waterhemp, Amaranthus rudis); assay: Test C preemergence; conditions: Amaranthus tuberculatus, pre-emergence, scale 0 to 100, read-out: Plant response rating, Waterhemp
Method in brief: (§1)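 After preemergence treatment of seeds in loam-sand soil or foliar treatment at the 1- to 4-leaf stage of plants in peat/vermiculite medium, pots were kept 13-15 days in the greenhouse. Each was then scored visually, 0 meaning no effect and 100 complete control.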

[2] = tested on: galium (catchweed bedstraw, Galium aparine); assay: Test C preemergence; conditions: Galium, pre-emergence, 336 h, scale 0 to 100, read-out: Plant response rating, Galium
Method in brief: as §1

[3] = tested on: oilseed rape (Brassica napus); assay: Test C preemergence; conditions: Brassica napus, pre-emergence, scale 0 to 100, read-out: Plant response rating, Oilseed Rape
Method in brief: as §1

[4] = tested on: morningglory (Ipomoea coccinea); assay: Test C preemergence; conditions: Ipomoea, pre-emergence, 336 h, scale 0 to 100, read-out: Plant response rating, Morningglory
Method in brief: as §1

[5] = tested on: kochia (Kochia scoparia); assay: Test C postemergence; conditions: Bassia scoparia, post-emergence, Postemergence, scale 0 to 100, read-out: Plant response rating, Kochia
Method in brief: as §1

[6] = tested on: Italian ryegrass (Lolium multiflorum); assay: Test C postemergence; conditions: Lolium multiflorum, post-emergence, 336 h, Postemergence, scale 0 to 100, read-out: Plant response rating, Ryegrass, Italian
Method in brief: as §1

[7] = tested on: waterhemp (common waterhemp, Amaranthus rudis); assay: Test C postemergence; conditions: Amaranthus tuberculatus, post-emergence, Postemergence, scale 0 to 100, read-out: Plant response rating, Waterhemp
Method in brief: as §1

[8] = tested on: soybean (Glycine max); assay: Test C postemergence; conditions: Glycine max, post-emergence, Postemergence, scale 0 to 100, read-out: Plant response rating, Soybean
Method in brief: as §1

[9] = tested on: lambsquarters (Chenopodium album); assay: Test C postemergence; conditions: Chenopodium album, post-emergence, 336 h, Postemergence, scale 0 to 100, read-out: Plant response rating, Lambsquarters
Method in brief: as §1

[10] = tested on: ragweed (common ragweed, Ambrosia elatior); assay: Test C postemergence; conditions: Ambrosia artemisiifolia, post-emergence, 336 h, Postemergence, scale 0 to 100, read-out: Plant response rating, Ragweed
Method in brief: as §1

[11] = tested on: velvetleaf (Abutilon theophrasti); assay: Test C postemergence; conditions: Abutilon theophrasti, post-emergence, Postemergence, scale 0 to 100, read-out: Plant response rating, Velvetleaf
Method in brief: as §1

[12] = tested on: blackgrass (Alopecurus myosuroides); assay: Test C postemergence; conditions: Alopecurus myosuroides, post-emergence, 336 h, Postemergence, scale 0 to 100, read-out: Plant response rating, Blackgrass
Method in brief: as §1

[13] = tested on: wild oat (Avena fatua); assay: Test C postemergence; conditions: Avena fatua, post-emergence, Postemergence, scale 0 to 100, read-out: Plant response rating, Oat, Wild
Method in brief: as §1

[14] = tested on: large (Lg) crabgrass (Digitaria sanguinalis); assay: Test C postemergence; conditions: Digitaria sanguinalis, post-emergence, 336 h, Postemergence, scale 0 to 100, read-out: Plant response rating, Crabgrass, Large
Method in brief: as §1

[15] = tested on: pigweed (Amaranthus retroflexus); assay: Test C postemergence; conditions: Amaranthus retroflexus, post-emergence, 336 h, Postemergence, scale 0 to 100, read-out: Plant response rating, Pigweed
Method in brief: as §1

[16] = tested on: winter wheat (Triticum aestivum); assay: Test C postemergence; conditions: Triticum aestivum, post-emergence, 336 h, Postemergence, scale 0 to 100, read-out: Plant response rating, Wheat
Method in brief: as §1

[17] = tested on: barnyardgrass (Echinochloa crus-galli); assay: Test C postemergence; conditions: Echinochloa crus-galli, post-emergence, Postemergence, scale 0 to 100, read-out: Plant response rating, Barnyardgrass
Method in brief: as §1

[18] = tested on: johnsongrass (Sorghum halepense); assay: Test C postemergence; conditions: Sorghum halepense, post-emergence, 336 h, Postemergence, scale 0 to 100, read-out: Plant response rating, Johnsongrass
Method in brief: as §1

[19] = tested on: corn (Zea mays); assay: Test C postemergence; conditions: Zea mays, post-emergence, 336 h, Postemergence, scale 0 to 100
Method in brief: as §1

[20] = tested on: oilseed rape (Brassica napus); assay: Test C postemergence; conditions: Brassica napus, post-emergence, Postemergence, scale 0 to 100, read-out: Plant response rating, Oilseed Rape
Method in brief: as §1

[21] = tested on: chickweed (common chickweed, Stellaria media); assay: Test C postemergence; conditions: Stellaria media, post-emergence, Postemergence, scale 0 to 100, read-out: Plant response rating, Chickweed
Method in brief: as §1

[22] = tested on: yellow nutsedge (Cyperus esculentus); assay: Test C postemergence; conditions: Cyperus, post-emergence, 336 h, Postemergence, scale 0 to 100, read-out: Plant response rating, Nutsedge, Yellow
Method in brief: as §1

## Fc1cccc(Oc2ncc(C(F)(F)F)cn2)c1Oc1ncc(Cl)cn1 [Compound 42, 5-chloro-2-[2-fluoro-6-[[5-(trifluoromethyl)-2-pyrimidinyl]oxy]phenoxy]pyrimidine]
[1]; 31 g ai/ha, preemergence
  pest or weed control at 31 g/ha: 100%
[1]; 62 g ai/ha, preemergence
  pest or weed control at 62 g/ha: 100%
[1]; 125 g ai/ha, preemergence
  pest or weed control at 125 g/ha: 100%
[1]; Preemergence, 16 g ai/ha
  pest or weed control at 16 g/ha: 95%
[2]; 31 g ai/ha, preemergence
  pest or weed control at 31 g/ha: 95%
[2]; 62 g ai/ha, preemergence
  pest or weed control at 62 g/ha: 95%
[2]; 125 g ai/ha, preemergence
  pest or weed control at 125 g/ha: 98%
[2]; Preemergence, 16 g ai/ha
  pest or weed control at 16 g/ha: 95%
[3]; 31 g ai/ha, preemergence
  plant injury at 31 g/ha: 100%
[3]; 62 g ai/ha, preemergence
  plant injury at 62 g/ha: 100%
[3]; 125 g ai/ha, preemergence
  plant injury at 125 g/ha: 100%
[3]; Preemergence, 16 g ai/ha
  plant injury at 16 g/ha: 98%
[4]; 31 g ai/ha, preemergence
  pest or weed control at 31 g/ha: 85%
[4]; 62 g ai/ha, preemergence
  pest or weed control at 62 g/ha: 100%
[4]; 125 g ai/ha, preemergence
  pest or weed control at 125 g/ha: 100%
[4]; Preemergence, 16 g ai/ha
  pest or weed control at 16 g/ha: 60%
[5]; 16 g ai/ha
  pest or weed control at 16 g/ha: 90%
[5]; 31 g ai/ha
  pest or weed control at 31 g/ha: 95%
[5]; 62 g ai/ha
  pest or weed control at 62 g/ha: 100%
[5]; 125 g ai/ha
  pest or weed control at 125 g/ha: 100%
[6]; 31 g ai/ha
  pest or weed control at 31 g/ha: 0%
[6]; 62 g ai/ha
  pest or weed control at 62 g/ha: 10%
[6]; 125 g ai/ha
  pest or weed control at 125 g/ha: 35%
[7]; 31 g ai/ha
  pest or weed control at 31 g/ha: 90%
[7]; 62 g ai/ha
  pest or weed control at 62 g/ha: 95%
[7]; 125 g ai/ha
  pest or weed control at 125 g/ha: 95%
[8]; 31 g ai/ha
  plant injury at 31 g/ha: 55%
[8]; 62 g ai/ha
  plant injury at 62 g/ha: 65%
[8]; 125 g ai/ha
  plant injury at 125 g/ha: 85%
[9]; 16 g ai/ha
  pest or weed control at 16 g/ha: 80%
[9]; 31 g ai/ha
  pest or weed control at 31 g/ha: 80%
[9]; 62 g ai/ha
  pest or weed control at 62 g/ha: 90%
[9]; 125 g ai/ha
  pest or weed control at 125 g/ha: 95%
[10]; 31 g ai/ha
  pest or weed control at 31 g/ha: 65%
[10]; 62 g ai/ha
  pest or weed control at 62 g/ha: 70%
[10]; 125 g ai/ha
  pest or weed control at 125 g/ha: 65%
[11]; 31 g ai/ha
  pest or weed control at 31 g/ha: 60%
[11]; 62 g ai/ha
  pest or weed control at 62 g/ha: 70%
[11]; 125 g ai/ha
  pest or weed control at 125 g/ha: 85%
[12]; 16 g ai/ha
  pest or weed control at 16 g/ha: 10%
[12]; 31 g ai/ha
  pest or weed control at 31 g/ha: 20%
[12]; 62 g ai/ha
  pest or weed control at 62 g/ha: 20%
[12]; 125 g ai/ha
  pest or weed control at 125 g/ha: 80%
[13]; 31 g ai/ha
  pest or weed control at 31 g/ha: 10%
[13]; 62 g ai/ha
  pest or weed control at 62 g/ha: 40%
[13]; 125 g ai/ha
  pest or weed control at 125 g/ha: 60%
[14]; 16 g ai/ha
  pest or weed control at 16 g/ha: 10%
[14]; 31 g ai/ha
  pest or weed control at 31 g/ha: 20%
[14]; 62 g ai/ha
  pest or weed control at 62 g/ha: 15%
[14]; 125 g ai/ha
  pest or weed control at 125 g/ha: 40%
[15]; 31 g ai/ha
  pest or weed control at 31 g/ha: 90%
[15]; 62 g ai/ha
  pest or weed control at 62 g/ha: 98%
[15]; 125 g ai/ha
  pest or weed control at 125 g/ha: 98%
[16]; 31 g ai/ha
  plant injury at 31 g/ha: 0%
[16]; 62 g ai/ha
  plant injury at 62 g/ha: 0%
[16]; 125 g ai/ha
  plant injury at 125 g/ha: 10%
[17]; 16 g ai/ha
  pest or weed control at 16 g/ha: 5%
[17]; 31 g ai/ha
  pest or weed control at 31 g/ha: 5%
[17]; 62 g ai/ha
  pest or weed control at 62 g/ha: 10%
[17]; 125 g ai/ha
  pest or weed control at 125 g/ha: 20%
[18]; 16 g ai/ha
  pest or weed control at 16 g/ha: 10%
[18]; 31 g ai/ha
  pest or weed control at 31 g/ha: 10%
[18]; 62 g ai/ha
  pest or weed control at 62 g/ha: 10%
[18]; 125 g ai/ha
  pest or weed control at 125 g/ha: 40%
[19]; 16 g ai/ha
  Corn plant response rating (crop injury, 0 = no effect, 100 = complete kill) at 16 g/ha: 5%
[19]; 31 g ai/ha
  Corn plant response rating (crop injury, 0 = no effect, 100 = complete kill) at 31 g/ha: 5%
[19]; 62 g ai/ha
  Corn plant response rating (crop injury, 0 = no effect, 100 = complete kill) at 62 g/ha: 10%
[19]; 125 g ai/ha
  Corn plant response rating (crop injury, 0 = no effect, 100 = complete kill) at 125 g/ha: 25%
[20]; 31 g ai/ha
  plant injury at 31 g/ha: 50%
[20]; 62 g ai/ha
  plant injury at 62 g/ha: 70%
[20]; 125 g ai/ha
  plant injury at 125 g/ha: 85%
[21]; 16 g ai/ha
  pest or weed control at 16 g/ha: 20%
[21]; 31 g ai/ha
  pest or weed control at 31 g/ha: 90%
[21]; 62 g ai/ha
  pest or weed control at 62 g/ha: 95%
[21]; 125 g ai/ha
  pest or weed control at 125 g/ha: 95%
[22]; 31 g ai/ha
  pest or weed control at 31 g/ha: 0%
[22]; 62 g ai/ha
  pest or weed control at 62 g/ha: 5%
[22]; 125 g ai/ha
  pest or weed control at 125 g/ha: 5%
